What all share (format): cell-based
The target of data set [1] is Gamma-secretase. Description: Effect on gamma-secretase activity in human H4 cells expressing APP695 assessed as reduction of Amyloid beta-38 formation by LPECL assay.
Data set [2] addresses Gamma-secretase. Description: (§1) Effect on gamma-secretase activity in human H4 cells expressing APP695 assessed as reduction of Amyloid beta-40 formation LPECL assay.
Data set [3] deals with Gamma-secretase. The experiment in a line: Effect on gamma-secretase activity in human H4 cells expressing APP695 assessed as increase in Amyloid beta-42 formation LPECL assay.
The next data set has as its system H4. Description: Cytotoxicity against human H4 cells assessed as reduction of viability.
Data set [4] deals with Gamma-secretase. Description: Effect on gamma-secretase activity in human H4 cells expressing APP695 assessed as increase in Amyloid beta38 formation by LPECL assay.
The target in data set [5] is Gamma-secretase (Homo sapiens) (UniProt Q96BI3+Q9NZ42+Q8WW43+P49768+Q92542+P49810). Described as §1.
Data set [6] deals with Gamma-secretase. Description: Effect on gamma-secretase activity in human H4 cells expressing APP695 assessed as reduction of Amyloid beta-42 formation LPECL assay.

The source of these data is ChEMBL document CHEMBL1139797, “Conversion of the LXR-agonist TO-901317--from inverse to normal modulation of gamma-secretase by addition of a carboxylic acid and a lipophilic anchor” (Bioorg Med Chem Lett, 2007).

Activity calls are given as the source filed them. The calls are words filed in the database; no cut-off is given here.

In general, IC50 refers to the point on the concentration scale where inhibition reaches its midpoint. What is called EC50 is the concentration needed to bring the measured effect to its halfway point. On to `CCCCCCCCN(c1ccc(OCC(=O)OC(C)(C)C)cc1)S(=O)(=O)c1cc(C(F)(F)F)cc(C(F)(F)F)c1`, for which the IC50 is 13.3 µM at Gamma-secretase [1] and > 40 µM at Gamma-secretase [2]. Moreover, at Gamma-secretase [3], the concentration for a half-maximal effect (EC50) was found to be 6.2 µM. Also, the Activity in the data set on H4 is > 40 µM.

Turning to `CC(C)c1cc(C(C)C)c(S(=O)(=O)n2c3ccccc3c3ccc(OCC(=O)O)cc32)c(C(C)C)c1`, the concentration for a half-maximal effect (EC50) at Gamma-secretase [4] stood at 7.8 µM. Further, the Activity with H4 was 20 µM.

As to `CCCCCCCCCCn1c2ccc(Cl)cc2c2ccc(C(C)C(=O)O)cc21` (stereo not given), on Gamma-secretase [4], the EC50 was determined as 5.8 µM. Moreover, the Activity in the data set with H4 was 40 µM.

On to `Cc1ccc(S(=O)(=O)n2c3ccc(Cl)cc3c3ccc(C(C)C(=O)OCc4ccccc4)cc32)cc1` (stereo not given), for which, on Gamma-secretase [1], the IC50 amounted to 20 µM. Moreover, the outcome in data set [5] was inactive. Also, the EC50 at Gamma-secretase [3] was found to be 20 µM. Also, in the data set on H4, the Activity is > 40 µM.

With `CCCCCCCCN(c1ccc(OCC(=O)O)cc1)S(=O)(=O)c1cc(C(F)(F)F)cc(C(F)(F)F)c1`, on Gamma-secretase [4], the 50% effective concentration (EC50) worked out at 23.7 µM. Moreover, the IC50 on Gamma-secretase [2] is > 40 µM; at Gamma-secretase [6] it was 19.6 µM. In addition, the Activity with H4 was found to be 40 µM.

Consider `CC(C(=O)OCc1ccccc1)c1ccc2c3cc(Cl)ccc3n(S(=O)(=O)c3cc(C(F)(F)F)cc(C(F)(F)F)c3)c2c1` (stereo not given), for which the results for the IC50 at Gamma-secretase [1] and at Gamma-secretase [2] were > 20 µM and > 40 µM, respectively. At Gamma-secretase [3], the 50% effective concentration (EC50) was > 20 µM. Moreover, the Activity in the data set with H4 is > 40 µM.

Consider `CC(C)(C)OC(=O)COc1ccc(NS(=O)(=O)c2cc(C(F)(F)F)cc(C(F)(F)F)c2)cc1`, for which the IC50 on Gamma-secretase [1] and at Gamma-secretase [2] was > 40 µM each time. Also, the EC50 on Gamma-secretase [3] is 10.6 µM. In addition, in the data set on H4, the Activity is > 40 µM.

For the compound `CC(C)c1cc(C(C)C)c(S(=O)(=O)n2c3ccc(Cl)cc3c3ccc(C(C)C(=O)O)cc32)c(C(C)C)c1` (stereo not given), the concentration giving a half-maximal response (EC50) on Gamma-secretase [4] was found to be 9.3 µM. Further, the Activity in the data set with H4 amounted to 40 µM.

Consider `CCCCCCCCCCn1c2ccccc2c2ccc(OCC(=O)O)cc21`, for which the Activity in the data set on H4 was > 40 µM.

With `O=S(=O)(c1ccccc1)N(CC(F)(F)F)c1ccc(C(O)(C(F)(F)F)C(F)(F)F)cc1` [T091317], the IC50 on Gamma-secretase [1] was 4.5 µM; at Gamma-secretase [2], > 40 µM. Also, the concentration giving a half-maximal response (EC50) at Gamma-secretase [3] amounted to 3.6 µM.
